Article PMC7918823, “Novel Potent and Selective DPP-4 Inhibitors: Design, Synthesis and Molecular Docking Study of Dihydropyrimidine Phthalimide Hybrids” (Pharmaceuticals, 2021)

How the values were obtained:
[1] = system: HFD-induced type 2 diabetic rats; assay: Oral glucose tolerance test after chronic treatment in HFD-induced type 2 diabetic rats; format: in vivo, SD rats; settings: for Glucose tolerance (AUC of OGTT versus non-treated diabetic group): 10 mg/kg/day oral, in absence of MET; for Reduction of AUC of OGTT by MET addition: hybrid 10 mg/kg/day oral plus MET 150 mg/kg/day
From the text: After acclimatization period, rats were randomly divided into 25 groups, each of seven rats. The first group was normal control group which maintained on normal rat chow for the entire experiment period (16 weeks). The second group served as diabetic control group in which T2DM was induced by HFD that consisted of casein (30%), raw beef fat (Suet, 40%), wheat flour (7%), glucose (10%), salt mixture (6%), vitamin mixture (3%), and bran (4%), for 16 weeks. […] At the end of treatment regimen that lasted for four weeks; using our synthesized hybrids 10a–j with and without MET, rats were fasted overnight (12 h) with free access to water. Oral glucose tolerance test (OGTT) was performed as previously described. […] Roche Diagnostics, Rotkreuz, Switzerland).

[2] = target: T1, recombinant human DPP-4 (Homo sapiens, UniProt P27487); assay: In vitro DPP-4 inhibition assay (continuous fluorometric, Gly-Pro-AMC); format: biochemical; settings: for IC50: recombinant human DPP-4, mean ± SE of four replicates; for Fold DPP-4 inhibitory activity relative to alogliptin: from IC50 values, versus alogliptin
T1 construct: purchased Sigma Aldrich
T1 sequence (P27487 whole entry): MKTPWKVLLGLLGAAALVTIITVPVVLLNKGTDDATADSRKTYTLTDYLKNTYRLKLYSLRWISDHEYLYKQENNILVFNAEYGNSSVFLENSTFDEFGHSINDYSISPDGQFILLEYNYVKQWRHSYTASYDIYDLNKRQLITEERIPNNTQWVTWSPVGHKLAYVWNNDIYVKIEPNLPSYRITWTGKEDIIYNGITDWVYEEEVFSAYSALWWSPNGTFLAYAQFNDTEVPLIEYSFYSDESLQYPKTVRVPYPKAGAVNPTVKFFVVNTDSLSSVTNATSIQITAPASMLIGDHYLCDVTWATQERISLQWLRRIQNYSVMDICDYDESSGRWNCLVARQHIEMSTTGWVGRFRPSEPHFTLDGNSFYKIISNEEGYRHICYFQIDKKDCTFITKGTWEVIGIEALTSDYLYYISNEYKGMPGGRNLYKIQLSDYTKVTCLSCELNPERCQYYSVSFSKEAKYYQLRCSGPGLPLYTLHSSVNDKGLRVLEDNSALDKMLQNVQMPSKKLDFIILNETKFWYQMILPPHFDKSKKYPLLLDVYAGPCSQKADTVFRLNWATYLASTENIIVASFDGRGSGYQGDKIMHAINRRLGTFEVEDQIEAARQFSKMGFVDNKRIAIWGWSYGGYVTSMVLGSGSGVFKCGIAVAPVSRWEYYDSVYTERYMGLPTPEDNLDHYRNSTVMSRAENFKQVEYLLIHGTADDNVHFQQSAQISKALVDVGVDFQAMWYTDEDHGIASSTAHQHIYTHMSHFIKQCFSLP
Procedure: (§1) DPP-4 inhibition was assessed, as previously described, based on a continuous fluorometric assay method in which the substrate Gly-Pro-AMC (Gly-Pro-7-amido-4-methylcoumarin hydrobromide) was split by DPP-4 to release fluorescent aminomethyl coumarin (AMC). The liberated AMC was continuously monitored using an excitation wavelength of 360 nm and an emission wavelength of 460 nm using an EnVision microplate reader (PerkinElmer, Waltham, MA, USA). The reaction mixture consisted of different concentrations of the synthesized hybrids 10a–j, 20 µU/µL of recombinant human DPP-4 (Sigma Aldrich, St. Louis, MO, USA), 10 µM Gly-Pro-AMC (Sigma Aldrich, St. Louis, MO, USA) and assay buffer (150 mM NaCl, 25 mM 4-(2-hydroxyethyl)-1-piperazineethanesulfonic acid (HEPES), 0.12 mg/ml bovine serum albumin (BSA)) and pH of 7.5. The assay was carried out in quadruplicate. IC50 was calculated using GraphPad Prism 8 software (San Diego, CA, USA). Similar to the DPP-4 assay, DPP-8 and DPP-9 inhibition assay was performed and the pH of the assay buffer was 8.

[3] = target: DPP-8 (Homo sapiens, UniProt Q6V1X1); assay: In vitro DPP-8 inhibition assay; format: biochemical; settings: assay buffer pH 8
Chain of DPP-8 (Q6V1X1 whole entry): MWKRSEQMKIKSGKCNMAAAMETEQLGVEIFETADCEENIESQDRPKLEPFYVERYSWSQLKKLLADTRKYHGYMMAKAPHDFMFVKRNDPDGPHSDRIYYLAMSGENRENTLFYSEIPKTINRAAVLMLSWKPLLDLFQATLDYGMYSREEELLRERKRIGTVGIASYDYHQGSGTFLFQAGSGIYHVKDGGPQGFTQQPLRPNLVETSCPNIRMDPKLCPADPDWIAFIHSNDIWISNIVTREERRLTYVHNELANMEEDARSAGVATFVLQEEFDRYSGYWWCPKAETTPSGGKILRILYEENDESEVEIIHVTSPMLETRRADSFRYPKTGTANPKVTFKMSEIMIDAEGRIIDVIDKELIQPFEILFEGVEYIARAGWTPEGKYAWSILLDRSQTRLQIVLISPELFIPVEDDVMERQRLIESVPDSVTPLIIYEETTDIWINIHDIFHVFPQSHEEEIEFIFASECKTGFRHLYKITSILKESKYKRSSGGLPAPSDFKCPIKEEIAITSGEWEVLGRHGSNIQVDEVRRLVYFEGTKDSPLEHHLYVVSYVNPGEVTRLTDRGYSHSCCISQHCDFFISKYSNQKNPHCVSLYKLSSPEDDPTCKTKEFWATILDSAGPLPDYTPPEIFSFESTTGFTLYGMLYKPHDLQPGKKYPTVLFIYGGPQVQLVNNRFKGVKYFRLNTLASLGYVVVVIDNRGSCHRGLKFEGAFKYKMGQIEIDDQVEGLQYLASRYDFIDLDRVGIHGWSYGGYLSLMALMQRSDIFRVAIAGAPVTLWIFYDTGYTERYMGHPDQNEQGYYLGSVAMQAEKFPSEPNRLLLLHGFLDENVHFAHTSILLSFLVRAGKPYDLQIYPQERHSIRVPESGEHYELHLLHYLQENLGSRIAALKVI
Procedure: as §1

[4] = target: DPP-9 (Homo sapiens, UniProt Q86TI2); assay: In vitro DPP-9 inhibition assay; format: biochemical; settings: assay buffer pH 8
Chain of DPP-9 (Q86TI2 whole entry): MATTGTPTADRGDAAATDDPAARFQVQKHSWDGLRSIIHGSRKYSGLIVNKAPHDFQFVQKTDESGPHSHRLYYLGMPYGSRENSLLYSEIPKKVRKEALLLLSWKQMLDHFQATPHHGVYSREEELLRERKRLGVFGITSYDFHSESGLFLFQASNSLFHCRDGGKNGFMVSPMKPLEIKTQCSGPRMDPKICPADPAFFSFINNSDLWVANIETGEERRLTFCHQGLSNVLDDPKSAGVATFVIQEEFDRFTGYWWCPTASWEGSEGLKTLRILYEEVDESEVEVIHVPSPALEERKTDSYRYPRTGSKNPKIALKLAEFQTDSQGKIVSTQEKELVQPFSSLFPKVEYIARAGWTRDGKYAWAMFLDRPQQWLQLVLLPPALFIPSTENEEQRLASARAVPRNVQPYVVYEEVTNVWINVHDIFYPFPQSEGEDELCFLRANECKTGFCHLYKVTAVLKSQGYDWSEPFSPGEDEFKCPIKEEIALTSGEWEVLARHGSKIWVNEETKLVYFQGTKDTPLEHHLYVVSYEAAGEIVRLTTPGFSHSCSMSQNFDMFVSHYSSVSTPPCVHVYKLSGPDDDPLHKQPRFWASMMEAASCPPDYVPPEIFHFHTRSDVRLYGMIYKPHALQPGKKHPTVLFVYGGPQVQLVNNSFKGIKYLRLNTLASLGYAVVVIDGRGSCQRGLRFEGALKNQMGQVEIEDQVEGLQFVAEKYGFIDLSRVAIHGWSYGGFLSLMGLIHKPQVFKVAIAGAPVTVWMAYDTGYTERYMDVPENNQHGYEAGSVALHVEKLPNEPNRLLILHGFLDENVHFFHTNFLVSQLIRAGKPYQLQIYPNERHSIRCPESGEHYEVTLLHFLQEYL
Procedure: as §1

[5] = Antioxidant activity (DPPH method); settings: 100 µM compound, 100 µM DPPH, 20 min, mean ± SE of four replicates
Procedure: DPPH (1,1-diphenyl-2-picrylhydrazyl) free radical is stable at rt and has a purple colour with a maximum absorption at 517 nm. This free radical is reduced by antioxidant molecules into 1,1-diphenyl-2-picrylhydrazine with resultant discolouration of free radical; this discolouration is stoichiometric with regard to the captured electrons. Accordingly, the fluctuation in the absorbance is an indicator for the antioxidant activity. Our synthesized hybrids 10a–j (100 µM) were mixed with DPPH (100 µM) and left for 20 min at rt, the absorbance was measured at 517 nm.

[6] = Cytotoxicity test (MTT assay); format: cell-based; settings: human, normal hepatic LO2 cells, read-out: cell viability
Procedure: We assessed any possible cytotoxic effect of our synthesized hybrids 10a–j on hepatic LO2 cells using MTT assay. The cells, in DMEM (Gibco, Invitrogen), were seeded in 96 well plates at density of 1 × 10^4/well. The synthesized compounds were added to the cells and incubated for 48 h at 37 °C and 5% CO2. Then, MTT reagent was added and the cells were re-incubated for further 4 h. After discarding the supernatants, the formed formazan crystals were dissolved in DMSO. The intensity of color was assessed using microplate reader (Bio-Rad Laboratories, Hercules, CA, USA) at 490 nm wavelength.

[7] = target: T2, blood DPP-4 activity (Rattus norvegicus, UniProt P14740); assay: In vivo DPP-4 inhibition assay (blood DPP-4 activity); settings: SD rats, single oral dose 10 mg/kg
T2 construct: from tissue; host or cells: plasma of male SD rats
T2 sequence (P14740 37-767 limits assumed): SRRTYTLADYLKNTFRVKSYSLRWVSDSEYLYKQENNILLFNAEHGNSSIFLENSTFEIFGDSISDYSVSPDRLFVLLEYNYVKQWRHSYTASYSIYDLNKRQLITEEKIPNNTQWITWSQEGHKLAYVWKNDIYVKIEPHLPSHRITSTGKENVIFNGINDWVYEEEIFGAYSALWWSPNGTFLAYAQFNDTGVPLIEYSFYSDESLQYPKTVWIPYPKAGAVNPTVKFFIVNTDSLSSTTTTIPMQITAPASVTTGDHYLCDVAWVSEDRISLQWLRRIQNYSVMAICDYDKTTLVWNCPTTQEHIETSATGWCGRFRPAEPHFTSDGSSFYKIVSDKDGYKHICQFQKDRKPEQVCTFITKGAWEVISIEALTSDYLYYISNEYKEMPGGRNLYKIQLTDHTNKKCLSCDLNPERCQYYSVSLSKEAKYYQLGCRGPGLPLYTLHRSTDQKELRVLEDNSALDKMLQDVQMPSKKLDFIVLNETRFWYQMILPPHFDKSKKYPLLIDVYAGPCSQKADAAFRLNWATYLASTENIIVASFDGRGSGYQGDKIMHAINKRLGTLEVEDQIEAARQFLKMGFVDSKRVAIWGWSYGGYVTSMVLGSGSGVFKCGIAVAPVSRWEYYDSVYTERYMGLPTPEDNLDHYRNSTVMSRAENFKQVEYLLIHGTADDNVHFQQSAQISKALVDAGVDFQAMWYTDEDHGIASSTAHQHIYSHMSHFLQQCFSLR
Procedure: The assay was performed using male SD rats (n = 3 per group), as previously described. The synthesized hybrids 10a–j were suspended in […] cellulose (CMC) and administrated orally at a single dose of 10 mg/kg.
Blood samples were collected at time points 0, 6, 12, 24, 36 and 48 h. Plasma samples were extracted and kept at −20 °C until analysis time. Similar to the in vitro DPP-4 assay principle, plasma samples were mixed with equal volumes of Gly-Pro-AMC in assay buffer (100 mM HEPES, 0.1 mg/ml BSA) and pH of 7.5. The liberated AMC was continuously monitored using an excitation wavelength of 360 nm and an emission wavelength of 460 nm using EnVision microplate reader (PerkinElmer, Waltham, MA, USA). The data were expressed as% blood DPP-4 activity.

[8] = combined with MET 150 mg/kg/day oral, four weeks (hybrid 10 mg/kg/day, alogliptin 20 mg/kg/day)

Molecule	AUC of OGTT [1, 8]	AUC of OGTT ([1]; without MET, alogliptin 20 mg/kg/day oral, four weeks)	IC50 [2]	IC50 [3]	IC50 [4]	% DPPH Scavenging [5]	Fold DPP-4 inhibitory activity relative to alogliptin [2]	viability at 48 h, 30 µM ([6]; 30 µM)	viability at 48 h, 50 µM [6]	Glucose tolerance (AUC of OGTT versus non-treated diabetic group) ([1]; four weeks)	Reduction of AUC of OGTT by MET addition ([1]; four weeks)	viability at 48 h, 10 µM ([6]; 10 µM)	DPP-4 blood activity ([7]; 12 h)	DPP-4 blood activity ([7]; 24 h)	DPP-4 blood activity ([7]; 48 h)
Cn1c(=O)cc(N2CCC[C@@H](N)C2)n(Cc2ccccc2C#N)c1=O [Alogliptin, reference compound]	15451 ± 110 mg·min/dL	20835 ± 146 mg·min/dL													
O=C(SC1=NC(c2ccccc2)=CC(c2ccccc2)N1)c1ccccc1CN1C(=O)c2ccccc2C1=O (stereo not drawn) [Compound 10a, S-(4,6-Diphenyl-1,6-dihydropyrimidin-2-yl)2-((1,3-dioxoisoindolin-2-yl)methyl)benzothioate]			0.0197 ± 0.00127 µM	> 100 µM	> 100 µM	73.85 ± 2.46%									
COc1ccc(C2C=C(c3ccc(Cl)cc3)N=C(SC(=O)c3ccccc3CN3C(=O)c4ccccc4C3=O)N2)cc1 (stereo not drawn) [Compound 10b, S-(4-(4-Chlorophenyl)-6-(4-methoxyphenyl)-1,6-dihydropyrimidin-2-yl)2-((1,3-dioxoisoindolin-2-yl)methyl)benzothioate]			0.00378 ± 0.00023 µM	> 100 µM	> 100 µM	74.28 ± 1.69%	1.5 fold								
O=C(SC1=NC(c2ccc(Cl)cc2)=CC(c2ccc(Cl)cc2)N1)c1ccccc1CN1C(=O)c2ccccc2C1=O (stereo not drawn) [Compound 10c, S-(4,6-Bis(4-chlorophenyl)-1,6-dihydropyrimidin-2-yl)2-((1,3-dioxoisoindolin-2-yl)methyl)benzothioate]			0.0147 ± 0.00082 µM	> 100 µM	> 100 µM	52.39 ± 0.93%		72.6%	72.5%						
Cc1ccc(C2=CC(c3ccc(Cl)cc3)NC(SC(=O)c3ccccc3CN3C(=O)c4ccccc4C3=O)=N2)cc1 (stereo not drawn) [Compound 10d, S-(6-(4-Chlorophenyl)-4-(p-tolyl)-1,6-dihydropyrimidin-2-yl)2-((1,3-dioxoisoindolin-2-yl)methyl)benzothioate]			0.00219 ± 0.00014 µM	> 100 µM	> 100 µM	80.16 ± 1.38%	2.6 fold								
CN(C)c1ccc(C2C=C(c3ccc(Br)cc3)N=C(SC(=O)c3ccccc3CN3C(=O)c4ccccc4C3=O)N2)cc1 (stereo not drawn) [Compound 10e, S-(4-(4-Bromophenyl)-6-(4-(dimethylamino)phenyl)-1,6-dihydropyrimidin-2-yl) 2-((1,3-dioxoisoindolin-2-yl)methyl)benzothioate]			0.00142 ± 0.00011 µM	> 100 µM	> 100 µM	87.21 ± 2.58%	4 fold			significantly improved glucose tolerance above alogliptin	22.82%				
O=C(SC1=NC(c2ccc(Cl)cc2)=CC(c2ccccc2)N1)c1ccccc1CN1C(=O)c2ccccc2C1=O (stereo not drawn) [Compound 10f, S-(4-(4-Chlorophenyl)-6-phenyl-1,6-dihydropyrimidin-2-yl)2-((1,3-dioxoisoindolin-2-yl)methyl)benzothioate]			0.0315 ± 0.00241 µM	> 100 µM	> 100 µM	57.63 ± 2.14%									
Nc1ccc(C2=CC(c3ccc(Cl)cc3)NC(SC(=O)c3ccccc3CN3C(=O)c4ccccc4C3=O)=N2)cc1 (stereo not drawn) [Compound 10h, S-(4-(4-Aminophenyl)-6-(4-chlorophenyl)-1,6-dihydropyrimidin-2-yl)2-((1,3-dioxoisoindolin-2-yl)methyl)benzothioate]			0.0104 ± 0.00054 µM	> 100 µM	> 100 µM	85.74 ± 2.76%			77.5%						
O=C(SC1=NC(c2ccc(Cl)cc2)=CC(c2ccco2)N1)c1ccccc1CN1C(=O)c2ccccc2C1=O (stereo not drawn) [Compound 10i, S-(4-(4-Chlorophenyl)-6-(furan-2-yl)-1,6-dihydropyrimidin-2-yl)2-((1,3-dioxoisoindolin-2-yl)methyl)benzothioate]			0.00066 ± 4e-05 µM	> 100 µM	> 100 µM	69.11 ± 1.44%	8.6 fold			significantly improved glucose tolerance above alogliptin	21.7%	74.6%	18.8%	49.9%	76%
Nc1ccc(C2=CC(c3cccc4ccccc34)NC(SC(=O)c3ccccc3CN3C(=O)c4ccccc4C3=O)=N2)cc1 (stereo not drawn) [Compound 10j, S-(4-(4-Aminophenyl)-6-(naphthalen-1-yl)-1,6-dihydropyrimidin-2-yl)2-((1,3-dioxoisoindolin-2-yl)methyl)benzothioate]			0.00735 ± 0.00036 µM	> 100 µM	> 100 µM	93.52 ± 1.65%									
S-(4-(4-Chlorophenyl)-6-(4-nitrophenyl)-1,6-dihydropyrimidin-2-yl)2-((1,3-dioxoisoindolin-2-yl)methyl)benzothioate [Compound 10g]	13787 ± 201 mg·min/dL		0.00051 ± 3e-05 µM	> 100 µM	> 100 µM	49.47 ± 1.08%	11.2 fold			significantly improved glucose tolerance above alogliptin	22.93%		18.45%	47%	73.3%
